In US12527831B2, “Skin care compositions comprising synergistic blend of sacred lotus and tea plant or sacred lotus and German Chamomile and cosmetic applications thereof” (ISP INVESTMENTS LLC, priority 2019, dated 2026):

Test system: IL-1α
Experiment: Inhibition of IL-1α induced by SDS in cultured epidermal keratinocytes (ELISA)
Format: cell-based
Conditions: Homo sapiens, Keratinocyte; anti-inflammatory benchmark, HEK; read-out: IC50 in inhibiting SDS-induced IL-1α
Procedure: Normal human adult epidermal keratinocytes (HEK) and all cell culture supplies were obtained from Life Technologies Co. (Carlsbad, CA, USA). The cells were grown and then maintained in keratinocyte basal medium 154 ([…]) with added human keratinocyte growth supplements (HKGS) at 37° C. in an atmosphere of 5% CO2 and used between passages 2 to 4. For the experiments, HEK cells were trypsinized, seeded in 96-well plates, and grown to 80% confluence. Specific concentrations of SDS were used for induction of chemokines and cytokines in the cultured HEK cells. IL-1α was induced with 25 μg/mL SDS. The cells were exposed for 16 hours to either SDS alone, or in combination with test articles at various concentrations in triplicates. After incubation, HEK cell supernatants were collected, and levels of interleukins were quantified using Quantikine® ELISA kits from R&D Systems Inc. IL-1α was quantified with catalogue number SLA50 kit. Percent (%) inhibition of IL-1α by the test articles were calculated by comparing to controls from non-SDS-induced cells considered as 0% and from SDS-induced cells considered as 100%. LDH assay using CytoscanTM LDH Assay kit (G-Biosciences Cat. No. 786-324) was performed on all HEK culture supernatants to make sure all tested concentrations had no cytotoxicity, and Kit-supplied lysis buffer was used as positive control.

IC50: 230 µg/mL
SMILES: CC(=O)Oc1ccccc1C(=O)O [Aspirin]
